According to ChEMBL document CHEMBL1201862, “PubChem BioAssay data set” (2004):
Activity calls are given as the source filed them.

Key:
HeLa = experiment: ATP-based viability loss in HeLa cells – cell-based, CellTiter-Glo luminescence, cherry-pick samples, cytotoxicity control for MITF activator project, dose response (AID 540259); assay type: functional; settings: Homo sapiens
[1] = Luminescence Cell-Based Dose Retest to Confirm Inhibitors of Cancer Stem Cells. [Related pubchem assays (depositor defined):AID2717, AID2721]; assay type: functional; settings: Homo sapiens
[2] = viability loss of HMLE_sh_eGFP cells – cell-based, luminescence, counter-screen for HMLE_sh_ECad selective toxicity project, dose response (AID 463074); assay type: functional, Homo sapiens;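 also: HMLE human mammary epithelial cells expressing control shRNA against eGFP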
[3] = biological target: Cyclin-dependent kinase 5/CDK5 activator 1 (Homo sapiens, UniProt Q00535); experiment: inhibitors of human CDK5 activity – biochemical, microfluidic mobility shift, dry powder, set 2, selectivity assay for GSK3beta inhibitor project, dose response (AID 623979); assay type: functional
Chain of Cyclin-dependent kinase 5/CDK5 activator 1 (Q00535 whole entry): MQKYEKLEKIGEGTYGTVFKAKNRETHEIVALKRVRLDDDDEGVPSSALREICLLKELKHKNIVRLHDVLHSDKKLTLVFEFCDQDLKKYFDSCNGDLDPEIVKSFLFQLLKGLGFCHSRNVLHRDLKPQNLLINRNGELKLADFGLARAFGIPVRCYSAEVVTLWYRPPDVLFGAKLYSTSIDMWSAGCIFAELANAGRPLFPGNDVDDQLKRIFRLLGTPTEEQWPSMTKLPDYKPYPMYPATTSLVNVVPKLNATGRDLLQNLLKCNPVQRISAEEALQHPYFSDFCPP
Chain of Cyclin-dependent kinase 5/CDK5 activator 1 (Q15078 whole entry, further chain): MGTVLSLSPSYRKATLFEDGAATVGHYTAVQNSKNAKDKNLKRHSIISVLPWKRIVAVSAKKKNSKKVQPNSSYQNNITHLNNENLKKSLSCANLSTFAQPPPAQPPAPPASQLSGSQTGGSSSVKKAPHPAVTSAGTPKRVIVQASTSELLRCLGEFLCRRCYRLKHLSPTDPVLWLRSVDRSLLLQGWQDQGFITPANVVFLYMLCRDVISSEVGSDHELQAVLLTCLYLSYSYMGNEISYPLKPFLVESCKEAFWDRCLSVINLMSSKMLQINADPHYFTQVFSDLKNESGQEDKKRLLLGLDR

[4] = biological target: Dual specificity tyrosine-phosphorylation-regulated kinase 1A (Rattus norvegicus, UniProt Q63470); assay type: biochemical, Homo sapiens
[5] = biological target: T1, Rac GTPase-activating protein 1 (Homo sapiens, UniProt Q9H0H5); experiment: blockers of MgcRacGAP-driven Rac1 GTP hydrolysis – biochemical, ADP Hunter fluorescence, primary and confirmatory, confirmation (AID 624330); assay type: functional
T1 sequence (Q9H0H5 whole entry): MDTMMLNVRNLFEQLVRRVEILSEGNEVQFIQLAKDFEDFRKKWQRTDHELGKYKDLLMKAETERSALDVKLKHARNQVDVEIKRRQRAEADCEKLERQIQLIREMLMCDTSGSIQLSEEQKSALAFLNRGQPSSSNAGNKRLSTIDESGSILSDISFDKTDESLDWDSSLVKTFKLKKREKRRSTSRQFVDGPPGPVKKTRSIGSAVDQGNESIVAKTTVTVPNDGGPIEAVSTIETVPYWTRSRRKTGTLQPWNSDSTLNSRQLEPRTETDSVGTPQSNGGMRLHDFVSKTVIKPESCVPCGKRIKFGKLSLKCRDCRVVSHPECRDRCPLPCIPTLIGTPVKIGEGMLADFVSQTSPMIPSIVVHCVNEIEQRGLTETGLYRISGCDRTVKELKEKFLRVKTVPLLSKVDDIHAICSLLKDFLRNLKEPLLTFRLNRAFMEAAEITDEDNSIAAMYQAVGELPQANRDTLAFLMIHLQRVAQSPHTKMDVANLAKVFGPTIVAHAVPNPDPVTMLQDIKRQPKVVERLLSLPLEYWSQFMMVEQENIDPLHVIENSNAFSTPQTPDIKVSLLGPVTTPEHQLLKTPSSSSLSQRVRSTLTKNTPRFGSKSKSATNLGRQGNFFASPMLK

[6] = viability loss in HeLa cells – cytotoxicity control for MgcRacGAP inhibitor project, dose response (AID 624300); assay type: functional
[7] = biological target: Glycogen synthase kinase-3 beta (Homo sapiens, UniProt P49841); experiment: inhibition of human GSK3B activity – biochemical, microfluidics, dry powder samples, set 2, dose response (AID 623989); assay type: functional
Chain of Glycogen synthase kinase-3 beta (P49841 whole entry): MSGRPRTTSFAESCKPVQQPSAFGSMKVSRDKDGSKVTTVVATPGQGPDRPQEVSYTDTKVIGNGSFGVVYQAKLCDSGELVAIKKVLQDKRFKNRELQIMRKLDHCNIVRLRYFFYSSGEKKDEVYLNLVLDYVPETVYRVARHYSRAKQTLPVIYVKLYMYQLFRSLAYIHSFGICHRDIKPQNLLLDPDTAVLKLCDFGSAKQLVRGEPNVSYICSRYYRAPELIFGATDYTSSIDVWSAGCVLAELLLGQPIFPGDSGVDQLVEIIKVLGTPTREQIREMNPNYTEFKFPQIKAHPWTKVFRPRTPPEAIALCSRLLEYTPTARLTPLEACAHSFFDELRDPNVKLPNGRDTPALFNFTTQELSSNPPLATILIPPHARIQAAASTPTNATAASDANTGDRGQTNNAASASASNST

[8] = biological target: Dual specificity protein kinase CLK1 (Homo sapiens, UniProt P49759); experiment: inhibition of human CLK1 activity – biochemical, cherry-picked samples, selectivity assay for Dyrk1A inhibitor project, dose response (AID 588811)
Chain of Dual specificity protein kinase CLK1 (P49759 whole entry): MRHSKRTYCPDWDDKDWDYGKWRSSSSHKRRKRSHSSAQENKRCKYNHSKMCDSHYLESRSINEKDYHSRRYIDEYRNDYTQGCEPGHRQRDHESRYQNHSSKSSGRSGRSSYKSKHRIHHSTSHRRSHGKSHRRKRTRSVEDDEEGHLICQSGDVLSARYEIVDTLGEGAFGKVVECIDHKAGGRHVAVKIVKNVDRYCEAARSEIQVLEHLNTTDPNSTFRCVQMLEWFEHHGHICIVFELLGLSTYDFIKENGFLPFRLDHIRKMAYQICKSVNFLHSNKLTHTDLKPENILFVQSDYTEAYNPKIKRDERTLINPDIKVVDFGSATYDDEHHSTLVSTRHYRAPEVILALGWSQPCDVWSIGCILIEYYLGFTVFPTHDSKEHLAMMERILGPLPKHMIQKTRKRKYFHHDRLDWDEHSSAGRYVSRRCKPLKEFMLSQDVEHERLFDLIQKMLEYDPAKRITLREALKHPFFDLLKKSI

[9] = biological target: Glycogen synthase kinase-3 alpha (Homo sapiens, UniProt P49840); experiment: GSK3A enzyme blockers, homolog specificity check – biochemical, microfluidics, dry powder samples, set 2, selectivity assay for GSK3beta inhibitor project, dose response (AID 623978); assay type: functional
Chain of Glycogen synthase kinase-3 alpha (P49840 whole entry): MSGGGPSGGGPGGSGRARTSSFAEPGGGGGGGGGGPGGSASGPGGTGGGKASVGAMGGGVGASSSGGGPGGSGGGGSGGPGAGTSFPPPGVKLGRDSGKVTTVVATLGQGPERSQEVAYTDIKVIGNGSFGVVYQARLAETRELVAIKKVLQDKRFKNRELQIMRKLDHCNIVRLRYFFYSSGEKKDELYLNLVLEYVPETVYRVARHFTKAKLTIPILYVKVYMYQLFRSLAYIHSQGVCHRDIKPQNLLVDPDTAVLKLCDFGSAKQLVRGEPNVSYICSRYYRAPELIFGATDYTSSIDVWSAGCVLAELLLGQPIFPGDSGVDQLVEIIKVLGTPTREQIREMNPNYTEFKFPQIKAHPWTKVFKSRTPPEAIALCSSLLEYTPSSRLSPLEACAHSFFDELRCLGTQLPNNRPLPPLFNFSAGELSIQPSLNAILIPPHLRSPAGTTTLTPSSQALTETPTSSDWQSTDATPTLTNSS

[10] = biological target: Melanin-concentrating hormone receptor 1 (Homo sapiens, UniProt Q99705); experiment: Late-stage fluorescence-based counterscreen for antagonists of the G-protein coupled receptor 7 (GPR7): cell-based dose response assay to identify antagonists of the melanin-concentrating hormone receptor 1 (MCHR1) Set 5.; assay type: functional
Chain of Melanin-concentrating hormone receptor 1 (Q99705 whole entry): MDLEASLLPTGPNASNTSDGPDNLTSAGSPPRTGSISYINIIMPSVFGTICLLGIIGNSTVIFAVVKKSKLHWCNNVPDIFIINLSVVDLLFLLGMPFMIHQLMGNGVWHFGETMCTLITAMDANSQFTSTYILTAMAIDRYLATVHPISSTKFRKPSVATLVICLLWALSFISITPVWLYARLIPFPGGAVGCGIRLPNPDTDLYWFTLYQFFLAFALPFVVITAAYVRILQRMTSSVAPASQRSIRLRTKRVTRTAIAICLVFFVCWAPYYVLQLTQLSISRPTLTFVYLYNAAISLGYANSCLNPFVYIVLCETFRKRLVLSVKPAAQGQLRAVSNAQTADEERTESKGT

[11] = biological target: T2, Neuropeptides B/W receptor type 1 (Homo sapiens, UniProt P48145); experiment: human NPBW1 receptor blockade, IC50 – cell-based, fluorescence, dose response, set 5, late-stage follow-up (AID 588566); assay type: functional
T2 sequence (P48145 whole entry): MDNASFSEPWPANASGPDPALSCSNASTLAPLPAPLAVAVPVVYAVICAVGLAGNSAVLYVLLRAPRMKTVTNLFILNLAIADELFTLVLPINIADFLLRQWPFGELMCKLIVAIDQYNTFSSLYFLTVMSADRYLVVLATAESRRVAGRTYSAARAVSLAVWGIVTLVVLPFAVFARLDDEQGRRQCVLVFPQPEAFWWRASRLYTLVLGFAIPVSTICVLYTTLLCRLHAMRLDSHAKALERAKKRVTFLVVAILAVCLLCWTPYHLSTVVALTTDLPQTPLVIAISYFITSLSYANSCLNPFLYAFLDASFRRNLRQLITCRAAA

COc1cccc(Nc2nc(-c3ccc(O)cc3)cs2)c1
active: AC50 (HeLa) 54.8 µM | AC50 [1] 19.6 µM | AC50 [2] 34.7 µM | AC50 [3] 33 µM | AC50 [4] 10.2 µM | IC50 [5] 66.1 µM | CC50 [6] 100 µM | AC50 [7] 2.8 µM | AC50 [8] 7.47 µM | AC50 [9] 8.21 µM

COc1ccc(Oc2c(Cl)cnn(CC(=O)c3ccc(Cl)cc3Cl)c2=O)cc1
active: IC50 [10] 5.47 µM | IC50 [11] 1.85 µM
